Values of other authors, collected in patent publication US6852845B1, “Method of identifying toxic agents using NSAID-induced differential gene expression in liver” (Curagen Corporation, priority 1999, dated 2005).

Experiments:
liver [1] = settings: risk class assigned to each NSAID (low, very low, overdose risk)
liver [2] = settings: injury type classes of Table 5: hepatocellular damage, cholestasis, elevated transaminase level

SMILES	Hepatotoxicity Risk of NSAIDs: Risk (liver [1])	type of hepatoxicity injury induced by the NSAID (liver [2])
Cc1cc(CC(=O)O)n(C)c1C(=O)c1ccc(Cl)cc1 [Zomepirac]	Very Low Risk	elevated transaminase level
Cc1ccc(Cl)c(Nc2ccccc2C(=O)O)c1Cl [Meclofenamate]	Very Low Risk	–
CC(=O)Oc1ccccc1C(=O)O [Acetylsalicylic Acid]	Overdose Risk	–
O=C(O)Cc1ccccc1Nc1c(Cl)cccc1Cl [Diclofenac]	Low Risk	–
CCCCC1C(=O)N(c2ccccc2)N(c2ccccc2)C1=O [Phenylbutazone]	Low Risk	–
CC(C(=O)O)c1ccc(C(=O)c2cccs2)cc1 (stereo not shown) [Suprofen]	Very Low Risk	–
Nc1c(CC(=O)O)cccc1C(=O)c1ccc(Br)cc1 [Bromfenac]	Low Risk	–
CC(C(=O)O)c1ccc2oc(-c3ccc(Cl)cc3)nc2c1 (stereo not shown) [Benoxaprofen]	Low Risk	cholestatis-inducing
CC(C(=O)O)c1cccc(Oc2ccccc2)c1 (stereo not shown) [Fenoprofen]	Very Low Risk	–
COc1ccc2c(c1)c(CC(=O)O)c(C)n2C(=O)c1ccc(Cl)cc1 [Indomethacin]	Very Low Risk	–
CC(C(=O)O)c1cccc(C(=O)c2ccccc2)c1 (stereo not shown) [Ketoprofen]	Very Low Risk	–
CC1=C(CC(=O)O)c2cc(F)ccc2/C1=C\c1ccc([S+](C)[O-])cc1 (stereo not shown) [Sulindac]	Low Risk	cholestatis-inducing
CN1C(C(=O)Nc2ccccn2)=C(O)c2sccc2S1(=O)=O [Tenoxicam]	Very Low Risk	elevated transaminase level
COc1ccc2cc(CCC(C)=O)ccc2c1 [Nabumetone]	Very Low Risk	cholestatis-inducing
CN1C(C(=O)Nc2ccccn2)=C(O)c2ccccc2S1(=O)=O [Piroxicam]	Very Low Risk	–
O=C(O)CCc1nc(-c2ccccc2)c(-c2ccccc2)o1 [Oxaprozin]	Very Low Risk	–
CC(C(=O)O)c1ccc(-c2ccccc2)c(F)c1 (stereo not shown) [Flurbiprofen]	Very Low Risk	hepatocellular damage
CCOc1ccc(NC(C)=O)cc1 [Phenacetin]	Overdose Risk	–
Cc1ccc(C(=O)c2ccc(CC(=O)O)n2C)cc1 [Tolmentin]	Very Low Risk	–
CCc1cccc2c3c([nH]c12)C(CC)(CC(=O)O)OCC3 (stereo not shown) [Etodolac]	Very Low Risk	–
Cc1cccc(Nc2ccccc2C(=O)O)c1C [Mefenamic Acid]	Very Low Risk	elevated transaminase level
